Results reported in ChEMBL document CHEMBL1201862, “PubChem BioAssay data set” (2004).
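Tested at 5 concentrations; 48 h exposure; 96-well plates; endpoints linearly interpolated, else capped at highest concentration. GI50 marks 50% less growth.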 Activity calls are given as the source filed them. Cut-off read from the data, not from the text of the source: active = GI50 up to about 1.1 µM and inactive = higher.

How the values were obtained:
Experiment in all cases: growth of human tumour cells (NCI), 48 h
OVCAR-3 = system: OVCAR-3
T47D = system: T47D
NCI-H226 = system: NCI-H226
BT-549 = system: BT-549
UACC-257 = system: UACC-257
SF-268 = system: SF-268
TK-10 = system: TK-10
ACHN = system: ACHN
HL-60 = system: HL-60
786-0 = system: 786-0
SK-MEL-2 = system: SK-MEL-2
COLO 205 = system: COLO 205
MOLT-4 = system: MOLT-4
SK-MEL-28 = system: SK-MEL-28
Malme-3M = system: Malme-3M
MDA-MB-435 = system: MDA-MB-435
MDA-MB-231 = system: MDA-MB-231
U-251 = system: U-251
MCF7 = system: MCF7
RXF 393 = system: RXF 393

Row | Structure (SMILES) | GI50 (OVCAR-3) | GI50 (T47D) | GI50 (NCI-H226) | GI50 (BT-549) | GI50 (UACC-257) | GI50 (SF-268) | GI50 (TK-10) | GI50 (ACHN) | GI50 (HL-60) | GI50 (786-0) | GI50 (SK-MEL-2) | GI50 (COLO 205) | GI50 (MOLT-4) | GI50 (SK-MEL-28) | GI50 (Malme-3M) | GI50 (MDA-MB-435) | GI50 (MDA-MB-231) | GI50 (U-251) | GI50 (MCF7) | GI50 (RXF 393)
1 | Cc1ccc2c(c1)nc1n2C(N)=Nc2ccccc2S1 | 43.3 µM (inactive) | 46.6 µM (inactive) | 30.3 µM (inactive) | > 100 µM (inactive) | > 67.5 µM (inactive) | 48.1 µM (inactive) | > 100 µM (inactive) | 59.7 µM (inactive) | 2.67 µM (inactive) | 52.7 µM (inactive) | > 100 µM (inactive) | 14.8 µM (inactive) | 4.66 µM (inactive) | > 100 µM (inactive) | > 100 µM (inactive) | 71.1 µM (inactive) | > 21 µM (inactive) | > 27.9 µM (inactive) | > 27.2 µM (inactive) | > 100 µM (inactive)
2 | COc1ccc(C(C#N)NC23CC4CC(CC(C4)C2)C3)cc1OC (stereo not drawn) | > 100 µM (inactive) | > 100 µM (inactive) | 79.4 µM (inactive) | > 100 µM (inactive) | > 100 µM (inactive) | > 100 µM (inactive) | > 100 µM (inactive) | > 100 µM (inactive) | > 100 µM (inactive) | > 100 µM (inactive) | > 100 µM (inactive) | > 100 µM (inactive) | > 100 µM (inactive) | > 100 µM (inactive) | > 100 µM (inactive) | > 100 µM (inactive) | > 100 µM (inactive) | > 100 µM (inactive) | > 100 µM (inactive) | > 100 µM (inactive)
3 | CN1CC[N+](C)=C1c1ccccc1 | > 100 µM (inactive) | > 100 µM (inactive) | > 100 µM (inactive) | > 100 µM (inactive) | > 100 µM (inactive) | > 100 µM (inactive) | > 100 µM (inactive) | > 100 µM (inactive) | > 100 µM (inactive) | > 100 µM (inactive) | > 100 µM (inactive) | > 100 µM (inactive) | > 100 µM (inactive) | > 100 µM (inactive) | > 100 µM (inactive) | > 100 µM (inactive) | > 100 µM (inactive) | > 100 µM (inactive) | > 100 µM (inactive) | > 100 µM (inactive)
4 | C#C[C@]1(O)CC[C@H]2[C@@H]3CCC4=C/C(=N/OC(=O)c5cccc6c(=O)c7ccccc7[nH]c56)CC[C@@H]4[C@H]3CC[C@@]21C | 64.1 µM (inactive) | 29 µM (inactive) | 83.6 µM (inactive) | 37.2 µM (inactive) | 37.2 µM (inactive) | 80 µM (inactive) | > 100 µM (inactive) | 66.1 µM (inactive) | 17.4 µM (inactive) | > 100 µM (inactive) | 57.4 µM (inactive) | 24.4 µM (inactive) | 16.2 µM (inactive) | 62.4 µM (inactive) | 45 µM (inactive) | 43.1 µM (inactive) | 51.8 µM (inactive) | 62.1 µM (inactive) | 42.5 µM (inactive) | > 100 µM (inactive)
5 | CC(=O)Nc1ccc(C(=O)NN2C(=O)CSC2c2ccc(O)cc2)cc1 (stereo not drawn) | > 100 µM (inactive) | > 100 µM (inactive) | > 100 µM (inactive) | > 100 µM (inactive) | > 100 µM (inactive) | > 100 µM (inactive) | > 100 µM (inactive) | > 100 µM (inactive) | > 100 µM (inactive) | > 100 µM (inactive) | > 100 µM (inactive) | > 100 µM (inactive) | > 100 µM (inactive) | > 100 µM (inactive) | – | > 100 µM (inactive) | > 100 µM (inactive) | > 100 µM (inactive) | > 100 µM (inactive) | > 100 µM (inactive)
6 | CC(=O)OCC1OC(N2C(C)=C(C(C)=O)C(c3ccco3)C(C#N)=C2S)C(OC(C)=O)C(OC(C)=O)C1OC(C)=O (stereo not drawn) | > 100 µM (inactive) | 78.7 µM (inactive) | > 100 µM (inactive) | > 100 µM (inactive) | > 100 µM (inactive) | > 100 µM (inactive) | > 100 µM (inactive) | > 100 µM (inactive) | > 100 µM (inactive) | > 100 µM (inactive) | > 100 µM (inactive) | > 100 µM (inactive) | > 100 µM (inactive) | > 100 µM (inactive) | > 100 µM (inactive) | > 100 µM (inactive) | > 100 µM (inactive) | > 100 µM (inactive) | > 100 µM (inactive) | > 100 µM (inactive)
7 | Cn1c(=O)c2[nH]c(C3CC(=O)CC(c4nc5c([nH]4)c(=O)n(C)c(=O)n5C)N3)nc2n(C)c1=O (stereo not drawn) | > 100 µM (inactive) | > 100 µM (inactive) | > 100 µM (inactive) | > 100 µM (inactive) | > 100 µM (inactive) | > 100 µM (inactive) | > 100 µM (inactive) | > 100 µM (inactive) | > 100 µM (inactive) | > 100 µM (inactive) | > 100 µM (inactive) | 97.7 µM (inactive) | 71.3 µM (inactive) | > 100 µM (inactive) | > 100 µM (inactive) | > 100 µM (inactive) | > 100 µM (inactive) | 91 µM (inactive) | 71.3 µM (inactive) | > 100 µM (inactive)
8 | CC(=O)Nc1cc2cc(N)ccc2oc1=O | > 100 µM (inactive) | > 100 µM (inactive) | > 100 µM (inactive) | > 100 µM (inactive) | > 100 µM (inactive) | > 100 µM (inactive) | > 100 µM (inactive) | > 100 µM (inactive) | > 100 µM (inactive) | > 100 µM (inactive) | > 100 µM (inactive) | > 100 µM (inactive) | > 100 µM (inactive) | > 100 µM (inactive) | > 100 µM (inactive) | > 100 µM (inactive) | > 100 µM (inactive) | > 100 µM (inactive) | > 100 µM (inactive) | 0.0411 µM (active)
9 | COC(=O)C1Cc2ccc(O)c(O)c2CN1 (stereo not drawn) | 35.5 µM (inactive) | 71.9 µM (inactive) | > 100 µM (inactive) | 18.3 µM (inactive) | 15.5 µM (inactive) | > 10 µM (inactive) | > 100 µM (inactive) | > 100 µM (inactive) | 25.8 µM (inactive) | 17.5 µM (inactive) | 16.7 µM (inactive) | > 100 µM (inactive) | 25.1 µM (inactive) | 17.3 µM (inactive) | 32.1 µM (inactive) | 16.7 µM (inactive) | 19.8 µM (inactive) | 17.4 µM (inactive) | 17.1 µM (inactive) | > 100 µM (inactive)
10 | CC(=O)c1c(=O)n(-c2ccc(C)cc2)c(O)c2c(N)n[nH]c12 | > 100 µM (inactive) | > 100 µM (inactive) | > 100 µM (inactive) | > 100 µM (inactive) | > 100 µM (inactive) | > 100 µM (inactive) | > 100 µM (inactive) | – | > 100 µM (inactive) | > 100 µM (inactive) | > 100 µM (inactive) | > 100 µM (inactive) | > 100 µM (inactive) | > 100 µM (inactive) | > 100 µM (inactive) | > 100 µM (inactive) | > 100 µM (inactive) | > 100 µM (inactive) | > 100 µM (inactive) | > 100 µM (inactive)
11 | CCC1NC(=O)C(NC(=O)c2ncccc2O)C(C)OC(=O)C(c2ccccc2)NC(=O)C2CC(=O)CCN2C(=O)C(Cc2ccccc2)N(C)C(=O)C2CCCN2C1=O (stereo not drawn) | > 100 µM (inactive) | > 100 µM (inactive) | > 100 µM (inactive) | > 100 µM (inactive) | > 100 µM (inactive) | > 100 µM (inactive) | > 100 µM (inactive) | > 100 µM (inactive) | 52.6 µM (inactive) | > 100 µM (inactive) | > 100 µM (inactive) | > 100 µM (inactive) | – | > 100 µM (inactive) | > 100 µM (inactive) | > 100 µM (inactive) | > 100 µM (inactive) | > 100 µM (inactive) | > 100 µM (inactive) | > 100 µM (inactive)
12 | O=C1CCC(CCc2nc3ccccc3[nH]2)(c2ccccc2)C(=O)N1 (stereo not drawn) | > 100 µM (inactive) | > 100 µM (inactive) | > 100 µM (inactive) | > 100 µM (inactive) | > 100 µM (inactive) | > 100 µM (inactive) | > 100 µM (inactive) | > 100 µM (inactive) | > 100 µM (inactive) | > 100 µM (inactive) | > 100 µM (inactive) | > 100 µM (inactive) | – | > 100 µM (inactive) | > 100 µM (inactive) | > 100 µM (inactive) | > 100 µM (inactive) | > 100 µM (inactive) | > 100 µM (inactive) | > 100 µM (inactive)
13 | CO/N=C1\CC(NC(=O)C(F)(F)F)c2ccsc21 (stereo not drawn) | > 100 µM (inactive) | > 100 µM (inactive) | > 100 µM (inactive) | > 100 µM (inactive) | > 100 µM (inactive) | > 100 µM (inactive) | > 100 µM (inactive) | – | > 100 µM (inactive) | – | > 100 µM (inactive) | > 100 µM (inactive) | > 100 µM (inactive) | > 100 µM (inactive) | > 100 µM (inactive) | > 100 µM (inactive) | > 100 µM (inactive) | > 100 µM (inactive) | > 100 µM (inactive) | > 100 µM (inactive)
14 | O=CNC(Cc1c[nH]cn1)C(=O)O (stereo not drawn) | > 100 µM (inactive) | > 100 µM (inactive) | > 100 µM (inactive) | > 100 µM (inactive) | > 100 µM (inactive) | > 100 µM (inactive) | > 100 µM (inactive) | > 100 µM (inactive) | > 100 µM (inactive) | > 100 µM (inactive) | > 100 µM (inactive) | > 100 µM (inactive) | – | > 100 µM (inactive) | > 100 µM (inactive) | > 100 µM (inactive) | > 100 µM (inactive) | > 100 µM (inactive) | > 100 µM (inactive) | > 100 µM (inactive)
